SMILES strings stand for the structures. Converted amounts (≈) assume the structure as drawn. Read-outs that look alike come from different tables or passages of the source. Where only a bound is given, the exact number is not on record here.

The results in this text go back to paper PMC10304387, “In Vitro and In Silico Evaluation of Anticholinesterase and Antidiabetic Effects of Furanolabdanes and Other Constituents from Graptophyllum pictum (Linn.) Griffith” (Molecules, 2023).

Experiment [1] deals with α-glucosidase. In words: α-glucosidase inhibitory activity (PNPG substrate). Particulars: for percentage inhibition of α-glucosidase: at 100 µg/mL; for IC50 ± SEM (α-glucosidase): Table 2 prints no unit, repeats Table 1 values; for IC50 α-Glucosidase: mean ± SEM of three measurements, highest test concentration 100 µg/mL. Details: IC50 ± SEM (α-glucosidase): unit not given beside the values.

In experiment [2] the target is T1, α-amylase (Sus scrofa, UniProt P00690).
T1 sequence (P00690 16-511): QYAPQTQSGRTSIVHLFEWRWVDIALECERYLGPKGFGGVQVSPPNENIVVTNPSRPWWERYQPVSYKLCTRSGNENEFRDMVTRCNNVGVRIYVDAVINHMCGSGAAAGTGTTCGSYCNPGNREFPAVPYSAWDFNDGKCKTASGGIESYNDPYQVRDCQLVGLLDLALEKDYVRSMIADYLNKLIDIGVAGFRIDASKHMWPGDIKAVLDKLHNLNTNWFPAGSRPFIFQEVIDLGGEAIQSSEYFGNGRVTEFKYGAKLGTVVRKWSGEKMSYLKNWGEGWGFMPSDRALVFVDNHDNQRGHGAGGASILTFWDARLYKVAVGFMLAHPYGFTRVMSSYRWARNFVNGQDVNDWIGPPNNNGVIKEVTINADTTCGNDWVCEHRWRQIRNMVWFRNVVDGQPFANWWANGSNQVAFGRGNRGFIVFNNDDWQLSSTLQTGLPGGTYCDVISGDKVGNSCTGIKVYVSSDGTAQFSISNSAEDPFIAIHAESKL
In words: α-amylase inhibition (starch–iodine method). Conditions: for inhibition at 100 µg/mL: read-out: percentage inhibition of α-amylase.
Description: The inhibition of α-amylase was determined using starch–iodine method with few modifications [64, 65]. Next, 50 µL of α-amylase from porcine pancreas in pH 6.9 phosphate buffer prepared with 6 mM NaCl and 25 µL of sample solutions was mixed in a 96-well microplate. The mixture was pre-incubated for 10 min at 37 °C. Next, 50 µL of starch solution (0.05%) was added and incubated for 10 min at 37 °C. Following incubation, the reaction was completed by adding HCl (0.1 M, 25 µL) and Lugol (100 µL) solutions, and the absorbance was recorded at 630 nm using a Multiskan Go microplate reader spectrophotometer (Thermo Fischer Scientific, Waltham, MA, USA).

Experiment [3] addresses butyrylcholinesterase (BChE) (Equus caballus, UniProt P81908). Kind of experiment: biochemical. Conditions: for inhibition at 100 µg/mL: read-out: percentage inhibition of BChE.
Description: The anticholinesterase activity of the extracts and compounds was determined spectrophotometrically via the acetylcholinesterase (AChE) and butyrylcholinesterase (BChE) enzyme inhibition assay method described by Ellman with minor modifications [62, 63]. AChE and BChE from electric eel and horse serum, respectively, were used. The substrates of the reactions were acetylthiocholine iodide and butyrylthiocholine chloride. The activity of the cholinesterase was monitored using DTNB (5,5′-Dithio-bis(2-nitrobenzoic) acid). […] A Multiskan Go microplate reader spectrophotometer (Thermo Fischer Scientific, Waltham, MA, USA) was used to read optical densities.
For experiment [4], the target named is T2, acetylcholinesterase (AChE) (Electrophorus electricus, UniProt O42275). Particulars: read-out: IC50 ± SEM (Acetylcholinesterase); Table 2 prints no unit; repeats Table 1 values.
The target in experiment [5] is T2, acetylcholinesterase (AChE). In words: biochemical. Particulars: for inhibition at 100 µg/mL: read-out: percentage inhibition of AChE, at 100 µg/mL.

butyrylcholinesterase (BChE), sequence (P81908 whole entry): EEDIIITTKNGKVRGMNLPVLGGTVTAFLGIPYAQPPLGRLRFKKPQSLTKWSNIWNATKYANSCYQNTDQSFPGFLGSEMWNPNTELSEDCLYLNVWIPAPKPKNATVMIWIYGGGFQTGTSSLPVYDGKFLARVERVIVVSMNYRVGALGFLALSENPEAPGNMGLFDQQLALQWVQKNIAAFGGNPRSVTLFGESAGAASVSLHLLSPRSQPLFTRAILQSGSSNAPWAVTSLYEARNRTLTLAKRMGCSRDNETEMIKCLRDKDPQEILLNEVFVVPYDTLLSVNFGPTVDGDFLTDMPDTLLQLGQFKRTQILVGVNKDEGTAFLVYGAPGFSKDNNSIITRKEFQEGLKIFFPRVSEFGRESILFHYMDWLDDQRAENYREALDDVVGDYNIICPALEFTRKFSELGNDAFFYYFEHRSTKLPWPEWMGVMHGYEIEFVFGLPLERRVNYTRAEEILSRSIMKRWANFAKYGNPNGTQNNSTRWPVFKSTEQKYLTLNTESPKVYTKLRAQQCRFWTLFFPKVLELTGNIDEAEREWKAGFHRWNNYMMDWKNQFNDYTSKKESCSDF
T2 sequence (O42275 24-633): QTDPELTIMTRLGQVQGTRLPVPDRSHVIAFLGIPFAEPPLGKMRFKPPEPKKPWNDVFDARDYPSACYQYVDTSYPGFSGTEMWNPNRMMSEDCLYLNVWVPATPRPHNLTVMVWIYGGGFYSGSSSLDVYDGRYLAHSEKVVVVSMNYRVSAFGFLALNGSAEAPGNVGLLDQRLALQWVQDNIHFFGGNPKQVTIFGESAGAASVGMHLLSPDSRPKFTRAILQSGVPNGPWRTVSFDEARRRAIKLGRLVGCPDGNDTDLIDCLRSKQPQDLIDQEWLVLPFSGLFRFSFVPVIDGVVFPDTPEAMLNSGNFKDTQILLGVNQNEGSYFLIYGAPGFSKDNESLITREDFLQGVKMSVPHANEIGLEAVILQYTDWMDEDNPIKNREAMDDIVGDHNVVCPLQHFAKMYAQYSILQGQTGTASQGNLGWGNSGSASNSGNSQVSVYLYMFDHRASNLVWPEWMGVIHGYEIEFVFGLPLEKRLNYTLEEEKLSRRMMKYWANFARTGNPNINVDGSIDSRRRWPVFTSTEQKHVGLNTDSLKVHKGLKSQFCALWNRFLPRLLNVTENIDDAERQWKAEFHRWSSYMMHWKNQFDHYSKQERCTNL

As to `C[C@H]1O[C@H](O[C@H]2[C@H](O)[C@@H](O)[C@@H](O[C@H]3[C@H](O)[C@@H](O)C(O)O[C@@H]3CO)O[C@@H]2CO)[C@H](O)[C@@H](O)[C@@H]1N[C@H]1C=C(CO)[C@@H](O)[C@H](O)[C@H]1O` (stereo partly drawn) [Acarbose, acarbose, reference compound], the “percentage inhibition of α-glucosidase” value in experiment [1] was determined as 51.35 ± 0.65%. The inhibition at 100 µg/mL in experiment [2] is 75.84 ± 0.52%.
Consider `COc1ccc2c3c1O[C@H]1C[C@@H](O)C=C[C@@]31CCN(C)C2` [Galantamine, galantamine, reference compound], for which the inhibition at 100 µg/mL in experiment [3] turned out to be 73.85 ± 0.3%.
Turning to `CC1=C[C@H]2OC(=O)[C@@]3(C)CCC[C@@](C)([C@@H]23)[C@H]1CC(=O)c1ccoc1` [Hypopurin A], the IC50 in experiment [4] was over 304 µM; in experiment [5] it was over 304 µM; in experiment [2], 185 µM; in experiment [3], 177 µM. In addition, the inhibition at 100 µg/mL in experiment [5] was found to be 40.2 ± 0.75%; in experiment [2], 65.8 ± 0.84%; in experiment [3], 64.8 ± 0.93%. Also, in experiment [1], the “IC50 ± SEM (α-glucosidase)” value worked out at 99.25 ± 0.96. For the same compound, in experiment [1], the “percentage inhibition of α-glucosidase” value was determined as 50.13 ± 0.81%. Besides, in experiment [1], the “IC50 α-Glucosidase” value is 99.25 ± 0.96 µg/mL (≈ 302 µM).
For the compound `CC1=C[C@H]2OC3OC(=O)[C@@]4(C)CCC[C@@]3([C@@H]24)[C@H]1CC(=O)c1ccoc1` [Hypopurin B], the IC50 in experiment [4] is over 292 µM; in experiment [5], over 292 µM; in experiment [2], 203 µM; in experiment [3] it was 196 µM. Further, the inhibition at 100 µg/mL amounted to 24.8 ± 0.33% in experiment [5], 56.68 ± 0.24% in experiment [2] and 61.8 ± 1.15% in experiment [3]. Further, the “IC50 ± SEM (α-glucosidase)” value in experiment [1] is 71.41 ± 0.98. Further, the “percentage inhibition of α-glucosidase” value in experiment [1] worked out at 51.95 ± 0.63%. Besides, in experiment [1], the “IC50 α-Glucosidase” value was 71.41 ± 0.98 µg/mL (≈ 209 µM).
For `CC1=CC2OC3OCC4(CCCC3(C)C24)C1CC(=O)c1ccoc1` (stereo not drawn) [Hypopurin E], the IC50 is over 304 µM in experiment [4], over 304 µM in experiment [5], 225 µM in experiment [2] and 265 µM in experiment [3]. In addition, the inhibition at 100 µg/mL in experiment [5] stood at 20.4 ± 0.56%; in experiment [2], 53.9 ± 0.52%; in experiment [3] it was 52.8 ± 1.07%. In addition, the “IC50 ± SEM (α-glucosidase)” value in experiment [1] is recorded as 76.33 ± 1.10. Besides, the “percentage inhibition of α-glucosidase” value in experiment [1] amounted to 54.79 ± 0.85%. In experiment [1], the “IC50 α-Glucosidase” value was 76.33 ± 1.10 µg/mL (≈ 232 µM).
For the compound `C=C(C)[C@@H]1CC[C@]2(C)CC[C@]3(C)[C@H](CC[C@@H]4[C@@]5(C)CC[C@H](O)C(C)(C)[C@@H]5CC[C@]43C)[C@@H]12` [Lupeol], the IC50 in experiment [5], in experiment [2] and in experiment [3] was over 234 µM in each case. In addition, in experiment [1], the “percentage inhibition of α-glucosidase” value is 60.91 ± 0.76%. Besides, in experiment [1], the “IC50 α-Glucosidase” value is listed as 69.75 ± 0.42 µg/mL (≈ 163 µM).
For `CC[C@H](/C=C/[C@@H](C)[C@H]1CC[C@H]2[C@@H]3CC=C4C[C@@H](O[C@@H]5O[C@H](CO)[C@@H](O)[C@H](O)[C@H]5O)CC[C@]4(C)[C@H]3CC[C@]12C)C(C)C` [Stigmasterol glucoside, Stigmasterol 3-O-β-D-glucopyranoside], the IC50 in experiment [5], in experiment [2] and in experiment [3] was over 174 µM each time. Besides, the inhibition at 100 µg/mL in experiment [5] was determined as 25.2 ± 0.94%. Moreover, the “IC50 α-Glucosidase” value in experiment [1] is recorded as over 100 µg/mL.
For the compound `CC[C@H](CC[C@@H](C)[C@H]1CC[C@H]2[C@@H]3CC=C4C[C@@H](O[C@@H]5O[C@H](CO)[C@@H](O)[C@H](O)[C@H]5O)CC[C@]4(C)[C@H]3CC[C@]12C)C(C)C` [β-Sitosterol glucoside, 3β-O-D-glucopyranosyl-β-sitosterol], the IC50 in experiment [5], in experiment [2] and in experiment [3] was over 173 µM throughout. The inhibition at 100 µg/mL in experiment [5] was 30.45 ± 0.23%. Besides, the “IC50 α-Glucosidase” value in experiment [1] is on record as over 100 µg/mL.
